For data set [1], the target named is T1, Broad substrate specificity ATP-binding cassette transporter ABCG2 (Homo sapiens, UniProt Q9UNQ0).
T1 sequence (Q9UNQ0 whole entry): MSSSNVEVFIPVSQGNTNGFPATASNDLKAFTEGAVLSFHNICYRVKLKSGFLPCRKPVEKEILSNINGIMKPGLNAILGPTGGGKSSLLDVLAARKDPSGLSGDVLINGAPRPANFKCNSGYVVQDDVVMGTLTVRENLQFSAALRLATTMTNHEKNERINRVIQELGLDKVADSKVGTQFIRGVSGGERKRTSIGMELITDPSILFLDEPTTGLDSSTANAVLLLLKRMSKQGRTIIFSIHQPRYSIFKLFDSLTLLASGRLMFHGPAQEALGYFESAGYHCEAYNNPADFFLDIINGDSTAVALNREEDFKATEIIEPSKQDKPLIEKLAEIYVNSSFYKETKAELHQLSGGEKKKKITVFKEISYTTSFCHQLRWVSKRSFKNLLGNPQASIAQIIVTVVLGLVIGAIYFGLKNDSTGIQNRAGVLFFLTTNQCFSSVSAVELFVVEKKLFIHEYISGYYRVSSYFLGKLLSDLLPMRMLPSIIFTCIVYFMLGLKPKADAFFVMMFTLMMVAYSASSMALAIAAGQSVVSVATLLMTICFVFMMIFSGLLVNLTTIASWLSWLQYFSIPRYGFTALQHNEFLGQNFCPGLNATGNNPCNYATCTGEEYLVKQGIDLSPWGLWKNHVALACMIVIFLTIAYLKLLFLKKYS
Briefly: TP_TRANSPORTER: inhibition of Topotecan efflux (Topotecan: 20 uM, beta-Estradiol: 100 uM) in BCRP-expressing K562 cells: flow cytometric analysis. The note with it: k562, 100 µM. The format is functional, cell-based.

Data set [2] deals with T1, Broad substrate specificity ATP-binding cassette transporter ABCG2. Description: TP_TRANSPORTER: inhibition of Topotecan efflux (Topotecan: 20 uM, Estrone: 100 uM) in BCRP-expressing K562 cells: flow cytometric analysis. The note with it: k562, 100 µM. The format is functional, cell-based. On the technique in general: Flow cytometry measures light scatter and fluorescence of single cells or particles in a stream.

Turning to `C[C@]12CC[C@@H]3c4ccc(O)cc4CC[C@H]3[C@@H]1CC[C@@H]2O` [ESTRADIOL], the Activity result in data set [1] was “inhibitor [+]”.

On to `C[C@]12CC[C@@H]3c4ccc(O)cc4CC[C@H]3[C@@H]1CCC2=O` [ESTRONE], for which the Activity entry in data set [2] was “inhibitor [+]”.

Values taken from ChEMBL document CHEMBL2074456, “Estrone and 17beta-estradiol reverse breast cancer resistance protein-mediated multidrug resistance” (Jpn J Cancer Res, 2002).
